Experimental findings from ChEMBL document CHEMBL1140041, “Flavylium salts as in vitro precursors of potent ligands to brain GABA-A receptors” (Bioorg Med Chem Lett, 2008) are described below.

Common to all, as to type: cell membranes
The nature of assay [1]: Displacement of [3H]flumazenil from GABAA receptor in Wistar rat cortical membrane. In general terms: In a radioligand displacement assay an active substance lowers the binding of a labelled ligand.
The species named for the next assay is Rattus norvegicus. The experiment in a line: Displacement of [3H]flumazenil from GABAA receptor in Wistar rat cortical membrane at 10 uM.
Assay [2] in a line: Displacement of [3H]flumazenil from GABAA receptor in Wistar rat cortical membrane preincubated for 24 hrs.
Assay [3] is described as follows: Displacement of [3H]flumazenil from GABAA receptor in Wistar rat cortical membrane preincubated for 15 mins.

SMILES strings stand for the structures. Active and inactive are the calls of the source. The calls are words filed in the database; no cut-off is given here.

By Ki is commonly meant the dissociation constant of the complex between target and ligand, obtained from inhibition or displacement. A low value points to a stronger hold on the target. Consider `COc1ccc2[o+]c(-c3ccccc3)ccc2c1`, for which, in assay [1], the affinity corresponds to a Ki of 180 nM.

Consider `COc1cc(-c2ccc3ccccc3[o+]2)cc(OC)c1OC`, for which, in the assay listed under Rattus norvegicus, the outcome was inactive.

As for `COc1ccc(C(=O)/C=C/c2cc(OC)ccc2O)cc1`, the inhibition constant Ki in assay [2] turned out to be 28 nM. This lies in the double-digit nanomolar range.

In assay [1], `Oc1ccc(-c2ccc3ccc(O)cc3[o+]2)cc1` came in with an inhibition constant (Ki) of 280 nM. This lies in the sub-micromolar range.

`COc1ccc2[o+]c(-c3ccc(O)cc3)ccc2c1` came in with an inhibition constant (Ki) in assay [1] of 160 nM.

Consider `Oc1ccc(-c2ccc3cccc(O)c3[o+]2)cc1`, for which the result in the assay listed under Rattus norvegicus was inactive.

`COc1ccc(-c2ccc3cc(OC)c(O)cc3[o+]2)cc1` displayed an inhibitory constant (Ki) in assay [1] of 7800 nM. That is a single-digit micromolar value.

In turn, `COc1ccc(-c2ccc3cc(O)ccc3[o+]2)cc1` gave a Ki in assay [1] of 320 nM. Compared with the last compound, the Ki is about 24-fold lower.

As for `COc1ccc(-c2ccc3cc(OC)ccc3[o+]2)cc1`, the figures for the inhibitory constant (Ki) in assay [1], in assay [2] and in assay [3] were 60 nM, 18 nM and 18 nM, respectively.

As to `Oc1ccc(-c2ccc3cc(O)ccc3[o+]2)cc1`, the Ki in assay [1] was determined as 1500 nM.

Consider `COc1ccc2ccc(-c3ccccc3)[o+]c2c1`, for which, in assay [1], the Ki is 1800 nM. This Ki and that of the compound before are within 1.5-fold of each other.

`Oc1ccc2ccc(-c3ccccc3)[o+]c2c1` had a Ki in assay [1] of 260 nM.

As to `COc1ccc(-c2ccc3ccc(OC)cc3[o+]2)cc1`, the inhibition constant Ki in assay [1] stood at 1200 nM.

For the compound `COc1ccc(-c2ccc3cc(Br)ccc3[o+]2)cc1`, the Ki in assay [1] was determined as 140 nM; in assay [2], 66 nM; in assay [3], 66 nM.

Take `COc1ccc2[o+]c(-c3ccc(OC)c(OC)c3)ccc2c1`: in the assay filed under Rattus norvegicus, the result was inactive.

Turning to `COc1ccc(-c2ccc3ccccc3[o+]2)cc1`, in assay [1], the Ki stood at 480 nM.

For `COc1ccc(-c2ccc3ccccc3[o+]2)cc1OC`, the outcome in the assay filed under Rattus norvegicus was inactive.

With `Oc1ccc(-c2ccc3ccc(O)c(O)c3[o+]2)cc1`, in the assay listed under Rattus norvegicus, the result was inactive.
